The results in this text go back to US6451852B2, “Phenylacetonitrilealkylaminoalkyl-ortho-substituted aryl compounds as immunosuppressives” (G. D. Searle & Co., priority 1989, dated 2002).

As a reminder, the pA2 is a measure of antagonist potency on a negative log scale. The term IC50 denotes the concentration needed to halve the response being measured. A lower IC50 goes with greater potency.

Structures are written as SMILES. Counter-ions that a name gives are not always drawn. A value given as a limit tells only on which side of the number the result lay.

The subject of test [1] is excised aortic segment (Ca++ induced vascular smooth muscle contraction). The test is described as follows: Assay F: Calcium Antagonist Effects. As to conditions: K+ (100 mM) depolarized aortic segment, 1 hr incubation with test compound at 10^-6M. On the procedure: Assay F: Calcium Antagonist Effects
An excised aortic segment was mounted in a tissue bath containing modified Krebs solution. After depolarization of the tissue with K^+ (100 mM), Ca^++, in cumulative concentrations of 10^−3M, 3.2×10^−3M and 10^−2M, was injected into the bath to produce vascular smooth muscle contraction. The developed tension (g) was measured and control dose-response values are obtained. After 1 hr incubation with a test compound at 10^−6M concentration, the same doses of Ca^++ are repeated. The log dose-response curves of control and after treatment were analyzed by linear regression.

The test system of test [2] is human peripheral blood mononuclear cells (PMNC) cocultured with mitomycin-C inactivated Raji stimulator cell line. The test is described as follows: Assay C: One-Way Mixed Lymphocyte Reaction (Human). Type of test: cell-based. As to conditions: one-way MLR, human PMNC vs Raji, 120 hours, 3H-thymidine. The source says: Assay C: One-Way Mixed Lymphocyte Reaction (Human)
The mixed lymphocyte reaction (MLR) is an assay that measures T-cell blast cell transformation and mitosis which occurs when lymphocytes from different major and minor histocompatibility complex (MHC) haplotypes are cocultured. This response is considered a “one-way MLR” when stimulator cells are made unresponsive by inhibition of DNA synthesis (treatment with mitomycin-C or gamma-irradiation) prior to coculture with responder cells. This assay can be used as an indicator of the cellular immunomodulation mechanisms involved in transplant rejection. In this assay, human peripheral blood mononuclear cells(PMNC) were used as the responder cell population and were isolated from normal donor blood as follows: Blood samples were collected in LeucoPREP™ tubes (Becton Dickinson, Lincoln Park, N.J.) and the mononuclear cell preparation was obtained by following the manufacturers procedures. Isolated mononuclear cells were co-incubated at 6×10^4 cells/well with a stimulator cell line at 2×10^4 cells/well in RPMI 1640 medium containing 5% fetal bovine serum and 2-mercaptoethanol (40 μM). The stimulator cell line, Raji, which was derived from a human Burkitt lymphoma (American Type Culture Collection, Rockville Md.) was previously inactivated by mitomycin-C treatment (Sigma, St. Louis Mo., 25 μg/ml, 370 for 30 minutes). After repeated washings of mitomycin-C from the stimulator cell line, cocultures were incubated in 96 well microtiter plates at 37° C., in 95% air/5% CO2 atmosphere for 120 hours in the presence or absence of test compounds (0.1-25 μM). Inhibition of proliferation was measured by reduced incorporation of ^3H-thymidine (0.5 μCi/well, added during the last 24 hours of the assay). The IC50 values for the immunosuppressant compounds were calculated by four parameter logistic regression analysis of the results [Delean et al, Id.]

In test [3] the test system is PHA stimulated human donor peripheral blood mononuclear cells (PMNC). The test is described as follows: Assay B: Suppression of Human Mitogen Stimulation. Type of test: cell-based. As to conditions: inhibition of PHA stimulated proliferation of human PMNC, 96 hrs, 3H-thymidine. As to the method:
Assay B: Suppression of Human Mitogen Stimulation Assay
Normal human donor peripheral blood mononuclear cells (PMNC) were isolated by density centrifugation using Ficoll-Paque(Pharacia LKB, Uppsala Sweden, 350 RCF 45 minutes). Cells were washed and incubated at 37° C. in 95%air/5% CO2 atmosphere in 96 well microtiter plates (2×10^5 cells/well) for 96hrs with RPMI 1640 medium containing 5% fetal bovine serum and 2-mercaptoethanol ([…]), Phytohemagglutinin (Difco, Detroit, MI 10 μg/ml) in the presence or absence of test compounds. Inhibition of PHA stimulated proliferation was measured by reduced incorporation of ^3H-thymidine (0.5 μCi/well, added during the last 24 hours of the assay). When possible, the IC50 values for active immunosuppressant compounds were calculated by four parameter logistic regression analysis of the results [Delean et al, DE ].

Test [4] has as its system ConA-stimulated spleen cells from female Balb/c mice. The test is described as follows: Assay A: Suppression of Mitogen-Stimulated Proliferation (Murine). Type of test: cell-based, mouse. As to conditions: inhibition of ConA-stimulated proliferation of murine spleen cells, 5 days, MTT. The source says:
Assay A: Suppression of Mitogen-Stimulated Proliferation (Murine)
It is known that lymphocyte activation can be polyclonally stimulated by plant lectins and other mitogens that induce blast transformation and mitosis. Certain mitogens like Concanavalin A (ConA), preferentially activate T-lymphocytes. Exposure to ConA results in polyclonal activation of T-cells and can be used as an in vitro index for general immunomodulation of pan T-cell activity. In this assay spleen cells harvested from female Balb/c mice were incubated at 37° C., in 95% air/5% CO2 atmosphere in 96 well microtiter plates (10^5 cells/well) for 5 days with Iscove's modified Dulbecco's medium [25 mM HEPES 2 mM L-glutamine, 5% fetal bovine serum and 2-mercaptoethanol (40 μM)] (100 μl/well), concanavalin A (ConA) alone (Sigma, St. Louis, Mo.; 1.0 μg/ml) or ConA in the presence of test compounds (0.001-25 μM). Inhibition of ConA-stimulated proliferation was measured by calorimetric indicator of growth and proliferation, MTT (3-(4,5-dimethylthiazol-2-yl)-2 diphenyl tetrazolium bromide; (100 μl/well, 1 mg/ml) Sigma) [Mosmann, T., J. of Immunological Methods, 65, 55-63, […]]. After four hours, plates were centrifuged (1200 rpm) media supernatants aspirated and dye loaded cells were solubilized in isopropanol (150 μl/well). The absorbance was measured on an ELISA plate reader with a test wavelength of 570 nm and a reference of 630 nm. The IC50 values for active immunosuppressant compounds were calculated by four parameter logistic regression analysis of the results [Delean et al, Am. J. Physiol., 2, 397 (1978)].

In test [5] the test system is anesthetized spontaneously hypertensive rat. Briefly: Assay H: Blood Pressure Reducing Effects. As to conditions: intragastrically at 10^-3M, readings 1, 2, 3 and 4 hours after administration. Type of test: in vivo. On the procedure:
Assay H: Blood Pressure Reducing Effects
Systemic blood pressure effects were assessed in vivo in an anesthetized spontaneously hypertensive rat. The test compound was administered intragastrically at 10^−[…]. Initial mean arterial blood pressure (MAP) was measured directly via a previously implanted arterial catheter immediately before administration of the compound. Blood pressure readings were made 1, 2, 3, and 4 hours after administration of the test compound.

The subject of the next test is Human mononuclear cells. The test is described as follows: Assay D: Calcium Flux Assay (human mononuclear cells). Type of test: cell-based. As to conditions: at 2×, 5× and 10× the IC50 values of Assay A. The text has this:
Assay D: Calcium Flux Assay
One of the earliest requirements of lymphocyte activation involves the rapid mobilization of intracellular calcium and the sustained influx of extracellular calcium. These cellular responses to lymphocyte activators can be measured by calcium-binding fluorescent dyes such as Indo-1 [P. S. Rabinovitch, et al J. Immunol, 137, 952 (1986)]. The rapid and sustained changes in intracellular calcium can be used to discriminate classes of immunomodulatory compounds which alter early events in lymphocyte activation. Human mononuclear cells or the human Jurkat T-cell line (ATCC, Rockville Md.) were loaded with the calcium-sensitive dye, Indo-1 (5 μM), washed and incubated for 2-5 minutes in the presence or absence of test compounds. Calcium flux was initiated in lymphocytes by the binding of crosslinked antibody to the T cell receptor(αCD3 at 250 ng/ml followed by goat-anti-mouse IgG) or the lectin Phytohemagglutinin (PHA, 100 ug/ml). Jurkat cell activation was initiated by the addition of purified antibody to the T cell receptor (αCD3, 250 ng/ml). Subsequent changes in the concentration if intracellular calcium was monitored over time (6 min) by flow cytometry (Epics 753, Coulter Electronics, Hialeah Fla.) to determine modulation of the initial calcium-mediated activation of the cells [P. S. Rabinovitch, et al, E]. […]
On the technique in general: Calcium assays in cells follow changes in intracellular calcium, usually with a dye or a luminescent sensor.

In the next test the test system is adult male SHR. The test is described as follows: Assay G: Calcium Channel Blocker Effects (vascular resistance, microspheres). To be noted: I.V. bolus of 1.0 mg/kg, Control (DMSO) 240. Type of test: in vivo, rat. As to the method:
Assay G: Calcium Channel Blocker Effects
Under ether anesthesia, the jugular vein, femoral artery and left ventricle of adult male SHR were cannulated. After a 3-5 hour recovery period, animals ere treated with either test compound or placebo. Ten minutes was allowed for steady state conditions to be reached. Arterial pressure was then monitored via the femoral cannula. Immediately after this measurement, the reference blood sample was taken and radioactively-labeled microspheres were injected into the left ventricle. Rats were then sacrificed; organs were removed, weighed and counted. Cardiac output was computed. Percent cardiac output distribution per gram tissue, flow per gram tissue, and resistance times gram tissue were calculated fro the following organs: brain, heart, kidneys, splanchnic organs (liver plus pancreas, spleen and G. I. tract), skeletal muscle and skill. The tested compound was administered as an I.V. bolus of 1.0 mg/kg. Differences in mean values between treatment and control groups were analyzed by a one-way one variable analysis and least significant difference test.

Take `COC(=O)c1cc(OC)c(OC)cc1CCN(C)CCCC(C#N)(c1ccc(OC)c(OC)c1)C(C)C` (stereo not shown) [Example 1, methyl 2-[2-[[4-cyano-4-(3,4-dimethoxyphenyl)-5-methylhexyl]methylamino]ethyl]-4,5-dimethoxybenzoate]: in test [1], the pA2 amounted to 6.81.

Consider `COC(=O)c1cc(OC)c(OC)cc1CCN(C)CCCC(C#N)(c1ccc(OC)c(OC)c1)C(C)C` (stereo not shown) [Example 2, methyl 2-[2-[[4-cyano-4-(3,4-dimethoxyphenyl)-5-methylhexyl]methylamino]ethyl]-4,5-dimethoxybenzoate, 2-hydroxy-1,2,3-propanetricarboxylic acid salt], for which the half-maximal inhibitory concentration (IC50) in test [2] was 4.3 µM; in test [3] (Homo sapiens, PBMC), 5.4 µM; in test [4] (Mus musculus, 120 h), 7.1 µM.

`COC(=O)c1cc(OC)c(OC)cc1CCN(C)CCCC(C#N)(c1ccc(OC)c(OC)c1)C(C)C` (stereo not shown) [Example 3, methyl 2-[2-[[4-cyano-4-(3,4-dimethoxyphenyl)-5-methylhexyl]methylamino]ethyl]-4,5-dimethoxybenzoate, 2,3-dihydroxybutanedioic acid salt]: the figures for the half-inhibitory concentration (IC50) in test [3] and in test [4] were 5.3 µM and 8.7 µM, respectively.

Regarding `COc1ccc(C(C#N)(CCCN(C)CCc2cc(OC)c(OC)cc2C(=O)NC(C)(C)C)C(C)C)cc1OC` (stereo not shown) [Example 4, 2-[2-[[4-cyano-4-(3,4-dimethoxyphenyl)-5-methylhexyl]methylamino]ethyl]-N-(1,1-dimethylethyl)-4,5-dimethoxybenzamide, 2-hydroxy-1,2,3-propanetricarboxylic acid salt], the IC50 in test [2] is 8.9 µM; in test [3] (Homo sapiens, PBMC), 9.9 µM; in test [4] (Mus musculus, 120 h) it was 13.3 µM. The pA2 in test [1] stood at 6.56. Besides, the “Decrease in MAP” value in test [5] is on record as 18 mm Hg.

Turning to `CCNC(=O)c1cc(OC)c(OC)cc1CCN(C)CCCC(C#N)(c1ccc(OC)c(OC)c1)C(C)C` (stereo not shown) [Example 5, 2-[2-[[4-cyano-4-(3,4-dimethoxyphenyl)-5-methylhexyl]methylamino]ethyl]-N-ethyl-4,5-dimethoxybenzamide, 2,3-dihydroxybutanedioic acid salt], the IC50 in test [2] was 20.2 µM; in test [3] (Homo sapiens, PBMC), above 25 µM; in test [4] (Mus musculus, 120 h), above 25 µM. Further, in the test with Human mononuclear cells, the “inhibition of calcium flux” value is given as “inhibited calcium flux in a dose dependent manner”. Besides, the “Decrease in MAP” value in test [5] is on record as 20 mm Hg.

As to `COc1ccc(C(C#N)(CCCN(C)CCc2cc(OC)c(OC)cc2C)C(C)C)cc1OC` (stereo not drawn) [Example 6, α-[3-[[2-(4,5-dimethoxy-2-methylphenyl)ethyl]methylamino]propyl]-3,4-dimethoxy-α-(1-methylethyl)benzeneacetonitrile, 2,3-dihydroxybutanedioic acid salt], in the test with adult male SHR, the “vascular resistance in the brain” value is listed as 149 mm Hg min. g/ml.

As to `COc1ccc(C(C#N)(CCCN(C)CCc2cc(OC)c(OC)cc2/C=C/C(C)=O)C(C)C)cc1OC` (stereo not drawn) [Example 7, α-[3-[[2-[4.5-dimethoxy-2-(3-oxo-1E-butenyl)phenyl]ethyl]methylamino]-propyl]-3,4-dimethoxy-α-(1-methylethyl)benzeneacetonitrile], the IC50 in test [2] is 15.5 µM; in test [4] (Mus musculus, 120 h), 7.9 µM.
